Assay results published in patent EP0427747B1, “SUBSTITUTED PHENYLACETONITRILES USED TO OVERCOME RESISTANCE TO DRUGS IN ANTI-MALARIAL THERAPY” (priority 1988, dated 1990).
Structures can show the parent of a compound that is named as a salt.

How the values were obtained:
[1] = test system: P. yoelii NS; experiment: Test model II: blood schizontocidal action in infected mice, 4-day treatment; type: in vivo, Plasmodium yoelii ssp; details: for % Parasitämie: mice, daily dose 10,0 mg/kg test substance plus 0,3 mg/kg Chloroquin, s.c., 4 days, parasitaemia one day after treatment
Description: Zur Bestätigung und weiteren Differenzierung der resistenzbrechenden Wirkung wurden Mäuse nach dem in Ann. Trop. Med. Parasit., 72, 23 (1978) beschriebenen Modell (vgl. auch Exp. Parasitol. 17, 89 (1965), Anm. Trop. Med. Parasit. 69, 155 (1975) mit parasitär befallenden Erythrocyten beimpft und 1 Tag nach der Injektion an vier aufeinanderfolgenden Tagen behandelt. Einen Tag nach der Behandlung wurde die Parasitämie bestimmt.
Eperythozoon-coccoides-freie, männliche, Schweizer Albino-Mäuse, Gewicht zwischen 18 und 20 g, werden für alle Prüfungen benutzt.
Sie werden in Räumen mit kontrollierter Temperatur (22° + 2°C) in Kunststoffkäfigen zu je 5 Mäusen pro Käfig gehalten.
P. yoelii NS, gewonnen aus P. yoelii N: mäßig resistent gegenüber Chloroquin. Erhaltung durch zyklische Passage durch Anopheles stephensi und unter medikamentöser Belastung in der Maus (60 mg/kg s.c. einmal während der Passage) (für nähere Erläuterung siehe Ann. Trop. Med. Parasit., 72, 23 (1978)).
Männliche Mäuse werden intravenös mit parasität befallenden Erythrozyten (10⁷) vom P. yoelli NS Stamm beimpft. Danach werden die Tiere an vier aufeinanderfolgenden Tagen beginnend am Tag der Infektion einmal täglich behandelt. Die Verbindungen werden mit ®Tween 80 in sterilem, destilliertem Wasser gelöst oder suspendiert und subkutan verabreicht. In Fällen, in denen sich die Zubereitung einer wäßrigen Lösung als äußerst schwierig erweist, wird die Prüfsubstanz zunächst in Dimethylsulfoxid gelöst. Danach werden wäßrige Verdünnungen zum Gebrauch hergestellt. Die Parasitämie wird am Tag nach der letzten Behandlung bestimmt. Die unterdrückung der Parasiten im Vergleich zur unbehandelten Kontrolle, wird mittels Probitanalyse der log-Dosis-Wirkungskurve berechnet.
Mäuse, die mit dem chloroquin-resistenten Plasmodium yoelii ssp infiziert waren, wurden mit Chloroquin über 4 Tage subkutan behandelt, wie unter II.2 beschrieben.
Einen Tag nach der Behandlung wurde die Parasitämie bestimmt und mit der Kontrolle verglichen.
Der AEI (Activity Enhancement Index) ist der Quotient aus der ED₉₀ für Chloroquin alleine und der ED₉₀ für Zusatz von 10 mg/kg Testsubstanz.

[2] = in vivo; details: rat, iv
Description: Das 3. Modell untersucht ebenfalls am Ganztier die Wirkung der Testsubstanz auf das Herz.
(§1) Angegeben ist jeweils, wieviel größer die Dosis der Testsubstanz sein darf als bei racemischem Verapamil, um den gleichen caridovasculären Effekt auszulösen.
(§2) Der Selektivitätsindex S der Tabelle ist das Produkt dieses Faktors mit dem AEI und beschreibt somit, um wieviel schwächer als beim racemischen Verapamil die cardiovasculären Effekte der Testsubstanz sind, wenn sie in der Resistenzbrechnung von Malariamitteln in equieffizienten Dosen eingesetzt werden.

[3] = test system: humanen Erythrocyten, die mit resistenten Plasmodien (Pl. falciparum) infiziert waren; experiment: Test model I: radiolabelled hypoxanthine incorporation (microdilution technique), alone and in combination with the antimalarial; type: cell-based; details: combination with Chloroquine; 1,0 = additivity, <0,5 = synergism
Description: Alle Substanzen wurden zunächst alleine und dann in Kombination mit dem Antimalaria-Mittel an humanen Erythrocyten, die mit resistenten Plasmodien (Pl. falciparum) infiziert waren, getestet. Der Einbau von radioaktiv markiertem Hypoxanthin diente als Maß für das Wachstum der Parasiten. Nach der Microdilutions-Technik (Antimicrob. Agents Chemotherapy 16,710 (1979)), wurde dabei für die erfindungsgemäßen Substanzen allein keine oder nur eine geringe Hemmung des Hypoxanthin-Einbaus gefunden. In Kombination mit einem Malariamittel wurde dagegen eine deutlich synergistische Hemmung beobachtet. Die Auswertung erfolgte über den FIC-Index (eine mathematische Repräsentation eines Isobologramms). Der Wert 1,0 bedeutet Additivität der Wirkungen, ein Wert <0,5 Synergismus. Für R-Verapamil und Chloroquin erhält man den Wert 0,56. [formula] IC₅₀ = Konzentration der Prüfsubstanz, die eine 50 %ige Hemmung der Parasiten bewirkt. [A] = gemessene IC₅₀ der Substanzu A in Gegenwart einer definierten (z.B. 500 bis 125 000 ng/ml) Menge der Substanz B. [B] = gemessene IC₅₀ der Substanz B in Gegenwart einer definierten (z.B. 500 bis 125 000 ng/ml) Menge der Substanz A. IC50A = IC₅₀ der Substanz A alleine gegeben IC50B = IC₅₀ der Substanz B alleine gegeben.
Die folgenden Werte wurden in der Kombination mit Chloroquine bestimmt.

[4] = in vitro; details: rat, aortic strip
Description: (§3) Weiter umfaßt die Tabelle drei praxisübliche Testmodelle auf cardiovasculäre Effekte. Am Gefäßstreifen der Ratte (rat aortic strip) (1. Modell) wird die Dosis bestimmt, die zu einer 50 %igen Relaxation führt, sie ist ein Maß für die gefäßerweiternde und damit blutdrucksenkende Wirkung einer Substanz. Das 2. Modell untersucht die blutdrucksenkende Wirkung am Ganztier (Ratte), bei intravenöser Gabe).
as §1, §2

[5] = test system: Gefäßstreifen der Ratte (rat aortic strip); experiment: in vitro
Description: as §3, §1, §2

[6] = in vivo; details: rat, iv; remark: listed apart in the source
Description: as §3, §1, §2

[7] = AEI relative to S,R-Verapamil = 1
[8] = Activity Enhancement Index: ED90 of Chloroquin alone divided by ED90 with addition of 10 mg/kg test substance

SMILES	AEI (10 mg/kg) [1, 7]	AEI (10 mg/kg) [1, 8]	EKG (AV-Block) Ratte i.v. ED [2]	FIC-Index [3]	% Parasitämie [1]	selectivity ratio [4]	Ratten Aortenstreifen ED₅₀ [5]	Blutdrucksenkung ED₅₀ [6]	selectivity ratio [6]	selectivity ratio [2]
COc1ccc(CCN(C)CCCC(C#N)(c2ccc(OC)c(OC)c2)C(C)C)cc1OC (racemic) [S,R-Verapamil, Verapamil, reference compound]	= 1 x	2,56	= 1							
COc1ccc(CCN(C)CCCC(C#N)(c2cc(OC)c(OC)c(OC)c2)C(C)C)cc1OC (single isomer, unassigned; (+)) [(+)-Gallopamil, (+)-1-(3,4-Dimethoxyphenyl)-3-methylaza-7-cyan-7-(3,4,5-trimethoxyphenyl)-8-methylnonan-hydrochlorid]	1,7x	4,4	4,6	0,53	8,6%	21.6	12,6	3,4		
CC(C)C(C#N)(CCCNCCc1ccccc1)c1ccccc1.Cl (stereo not shown) [Noremopamil, 1,7-Bis-(phenyl)-3-aza-7-cyano-8-methyl-nonan-hydrochlorid]	1,60x	4,1	4,6	0,19		4.6	2,9	4,3	6.9	6.9
COc1ccc(CCN(C)CCC[C@](C#N)(c2ccc(OC)c(OC)c2)C(C)C)cc1OC [R-Verapamil, reference compound]	1,6x	4,15	4,6	0,56	14,2%	10.2				
CC(C)[C@@](C#N)(CCCN(C)CCc1ccccc1)c1ccccc1 [S-Emopamil, (-)-(S)-1,7-Bis-(phenyl)-3-methylaza-7-cyano-8-methyl-nonan-hydrochlorid]	1,8x	4,5	2,15	0,19	6,7%	13.5	7,7	2,7		
